Measurements taken from ChEMBL document CHEMBL3779880, “In silico to in vitro screening of hydroxypyridinones as acetylcholinesterase inhibitors” (Bioorg Med Chem Lett, 2016).
The source made the active and inactive calls. The calls are words filed in the database; no cut-off is given here.

Legend:
[1] = Metal chelating activity assessed as Fe3+/compound complex formation incubated with electric eel AChE for 1 and 24 hrs measured over 60 mins by TLC analysis; format: physicochemical
[2] = molecular target: Acetylcholinesterase (Electrophorus electricus, UniProt O42275)
Description: Inhibition of electric eel AChE using acetylthiocholine iodide as substrate by Ellman's method

[3] = molecular target: Acetylcholinesterase (Electrophorus electricus) (UniProt O42275); assay: Reversible inhibition of electric eel AChE incubated for 1 and 24 hrs by ESI-MS and TLC method
[4] = molecular target: Acetylcholinesterase (Electrophorus electricus) (UniProt O42275); assay: Reversible inhibition of electric eel AChE at 92 mM after 5 to 60 mins followed by addition of acetylthiocholine iodide by Ellman's method
[5] = molecular target: Acetylcholinesterase (Electrophorus electricus) (UniProt O42275); assay: Reversible inhibition of electric eel AChE at 554 mM after 5 to 60 mins followed by addition of acetylthiocholine iodide by Ellman's method

Acetylcholinesterase, sequence (O42275 whole entry): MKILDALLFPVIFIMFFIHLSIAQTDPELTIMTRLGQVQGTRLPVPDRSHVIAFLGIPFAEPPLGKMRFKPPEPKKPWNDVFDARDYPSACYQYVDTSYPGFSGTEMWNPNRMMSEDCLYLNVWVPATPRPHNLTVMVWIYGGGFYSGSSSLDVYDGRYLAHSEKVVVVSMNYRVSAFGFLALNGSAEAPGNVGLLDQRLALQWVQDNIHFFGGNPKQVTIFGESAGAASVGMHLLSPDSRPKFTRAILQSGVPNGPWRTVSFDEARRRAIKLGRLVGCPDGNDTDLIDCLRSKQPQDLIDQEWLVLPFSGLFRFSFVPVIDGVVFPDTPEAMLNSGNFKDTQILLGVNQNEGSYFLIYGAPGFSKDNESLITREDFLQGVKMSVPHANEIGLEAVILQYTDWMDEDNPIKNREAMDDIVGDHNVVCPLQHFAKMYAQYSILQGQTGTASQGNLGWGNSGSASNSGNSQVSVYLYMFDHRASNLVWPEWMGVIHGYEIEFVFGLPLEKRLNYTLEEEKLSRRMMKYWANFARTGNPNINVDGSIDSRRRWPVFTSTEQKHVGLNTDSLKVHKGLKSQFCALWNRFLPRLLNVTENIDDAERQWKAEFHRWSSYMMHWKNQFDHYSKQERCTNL
Acetylcholinesterase (Electrophorus electricus), sequence (O42275 24-633 limits assumed): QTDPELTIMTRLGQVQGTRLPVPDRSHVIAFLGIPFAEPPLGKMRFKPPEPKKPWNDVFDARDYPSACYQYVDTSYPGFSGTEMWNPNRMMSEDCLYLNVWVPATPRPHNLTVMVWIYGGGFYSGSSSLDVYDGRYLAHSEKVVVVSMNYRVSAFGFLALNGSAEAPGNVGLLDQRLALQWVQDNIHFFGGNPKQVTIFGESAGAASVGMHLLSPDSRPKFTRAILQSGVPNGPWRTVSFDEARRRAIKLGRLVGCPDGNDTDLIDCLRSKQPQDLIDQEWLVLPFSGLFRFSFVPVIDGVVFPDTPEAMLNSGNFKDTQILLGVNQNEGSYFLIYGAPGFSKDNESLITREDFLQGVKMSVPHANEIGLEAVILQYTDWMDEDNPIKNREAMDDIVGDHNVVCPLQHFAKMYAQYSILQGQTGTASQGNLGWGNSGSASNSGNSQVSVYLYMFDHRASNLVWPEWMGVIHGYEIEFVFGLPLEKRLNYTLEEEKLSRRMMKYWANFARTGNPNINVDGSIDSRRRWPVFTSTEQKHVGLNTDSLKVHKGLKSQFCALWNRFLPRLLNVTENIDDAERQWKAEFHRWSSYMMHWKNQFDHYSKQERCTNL

Structure (SMILES)	Activity [1]	IC50 [2]	inhibition [3]	inhibition [4]	inhibition [5]
Cc1c(O)c(=O)ccn1-c1ccc(OC(=O)N(C)C)cc1	Active	348 µM	Active	Active	–
Cc1ccc(OC(=O)N(C)C)cc1 [P-TOLYL DIMETHYLCARBAMATE]	–	1280 µM	–	–	–
Cc1c(OCc2ccc(OC(=O)N(C)C)cc2)c(=O)ccn1-c1ccccc1	–	217 µM	Active	–	Active
